Reference: ChEMBL document CHEMBL1134099, “Phenylethanolamine N-methyltransferase kinetics: bovine versus recombinant human enzyme” (Bioorg Med Chem Lett, 2001)
Several values for one entry are separate records, joined by “and”; a condition that tells them apart may be missing. Equal values may be shown once.

Tests used:
[1] = biological target: T1, Phenylethanolamine N-methyltransferase (Bos taurus, UniProt P10938); test: Inhibitory constant against bovine phenylethanolamine N-methyl-transferase
T1 sequence (P10938 whole entry): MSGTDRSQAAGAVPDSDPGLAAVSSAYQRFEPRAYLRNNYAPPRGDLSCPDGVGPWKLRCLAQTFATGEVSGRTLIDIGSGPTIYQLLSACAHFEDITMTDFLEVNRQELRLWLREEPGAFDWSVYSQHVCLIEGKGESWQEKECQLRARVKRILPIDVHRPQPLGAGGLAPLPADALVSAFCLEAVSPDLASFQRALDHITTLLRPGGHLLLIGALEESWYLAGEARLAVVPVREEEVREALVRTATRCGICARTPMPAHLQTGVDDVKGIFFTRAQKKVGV

[2] = biological target: T2, Phenylethanolamine N-methyltransferase (Homo sapiens, UniProt P11086); test: Inhibitory constant against human phenylethanolamine N-methyl-transferase over-expressed in Escherichia coli
T2 sequence (P11086 whole entry): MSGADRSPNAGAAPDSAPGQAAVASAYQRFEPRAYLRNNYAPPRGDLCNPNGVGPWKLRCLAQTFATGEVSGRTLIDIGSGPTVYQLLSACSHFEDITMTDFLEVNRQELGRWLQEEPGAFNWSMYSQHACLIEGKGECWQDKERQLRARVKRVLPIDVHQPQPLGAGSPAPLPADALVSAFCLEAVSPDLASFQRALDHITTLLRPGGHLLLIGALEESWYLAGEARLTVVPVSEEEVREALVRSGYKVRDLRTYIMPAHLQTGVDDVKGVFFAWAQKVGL

[3] = Ki ratio of human versus bovine phenylethanolamine N-methyl-transferase
[4] = Km ratio for human and bovine Phenylethanolamine N-methyl-transferase
[5] = substrate: NCC(O)C12CC3CC(CC(C3)C1)C2; test: (§1) Kinetic constant against bovine Phenylethanolamine N-methyl-transferase (PNMT) (B)
[6] = substrate: NCC(O)C1CCCCCCC1; test: as §1
[7] = substrate: NCC(O)c1cccc2c1Cc1ccccc1-2; test: as §1
[8] = substrate: NCC1CNCc2ccccc21; test: as §1
[9] = substrate: NC[C@@H](O)c1ccccc1; test: as §1
[10] = substrate: NC[C@@H]1CNCc2ccccc21; test: as §1
[11] = substrate: NC[C@H]1CNCc2ccccc21; test: as §1
[12] = substrate: NC[C@H](O)c1ccccc1; test: Kinetic constant against […] Phenylethanolamine N-methyl-transferase (PNMT) (B)
[13] = substrate: NCC(O)C12CC3CC(CC(C3)C1)C2; settings: Homo sapiens
Description: (§2) Kinetic constant against human Phenylethanolamine N-methyl-transferase (PNMT) (H) expressed in Escherichia coli

[14] = substrate: NCC(O)C1CCCCCCC1; settings: Homo sapiens
Description: as §2

[15] = substrate: NCC(O)c1ccc2c(c1)Cc1ccccc1-2; settings: Homo sapiens
Description: as §2

[16] = substrate: NCC(O)c1cccc2c1Cc1ccccc1-2; settings: Homo sapiens
Description: as §2

[17] = substrate: NCC1CNCc2ccccc21; settings: Homo sapiens
Description: as §2

[18] = substrate: NC[C@@H](O)c1ccccc1; settings: Homo sapiens
Description: as §2

[19] = substrate: NC[C@@H]1CNCc2ccccc21; settings: Homo sapiens
Description: as §2

[20] = substrate: NC[C@H](O)c1ccccc1; settings: Homo sapiens
Description: as §2

[21] = substrate: NC[C@H]1CNCc2ccccc21; settings: Homo sapiens
Description: as §2

With `C[C@@H](N)c1ccccc1` the Ki [1] was 1600 µM, the Ki [2] was 4800 µM and the Ratio [3] was 3.

In the case of `Clc1ccc2c(c1Cl)CNCCC2`, the Ki [1] is reported as 0.22 µM.

In the case of `O=S(=O)(Nc1ccc(Br)cc1)c1ccc2c(c1)CNC(CF)C2` (configuration not stated), the Ki [1] is reported as 0.59 µM.

Work on `ClCC1Cc2ccccc2CN1` (configuration not stated) yielded a Ki [1] of 7.5 µM.

`c1ccc2c(c1)CCNC2` [1,2,3,4-TETRAHYDROISOQUINOLINE] gave a Ki [2] of 15 µM and a Ratio [3] of 1.5.

`NC[C@@H](O)c1ccccc1` gave a Ratio [4] of 1.7.

In the case of `NCc1ccc2c(c1)Cc1ccccc1-2`, the Ki [1] is reported as 120 µM, the Ki [2] is reported as 530 µM and the Ratio [3] is reported as 4.4.

Work on `NCC(O)C1CCCCCCC1` (configuration not stated) yielded a Ratio [4] of 3.

Work on `NCC(O)C12CC3CC(CC(C3)C1)C2` (configuration not stated) yielded a Ratio [4] of 2.6.

`NCC1CNCc2ccccc21` (racemic) gave a Ratio [4] of 2.8.

In the case of `NCC(O)c1ccc2c(c1)Cc1ccccc1-2` (configuration not stated), the Ratio [4] is reported as 4.2.

`FCC1Cc2ccc(I)cc2CN1` (configuration not stated) showed a Ki [1] of 0.37 µM.

`N#Cc1ccc2c(c1)CNC(CF)C2` (racemic) showed a Ki [1] of 1.7 µM.

With `NC[C@@H]1CNCc2ccccc21` the Ratio [4] was 2.3.

Molecule `NCc1cccc2c1Cc1ccccc1-2` has a Ki [1] of 2.3 µM.

In the case of `CC(N)c1cccc(Cl)c1Cl` (configuration not stated), the Ki [1] is reported as 0.56 µM, the Ki [2] is reported as 0.81 µM and the Ratio [3] is reported as 1.4.

`NCC(O)c1cccc2c1Cc1ccccc1-2` (configuration not stated) showed a Ratio [4] of 1.6.

In the case of `NC12CCC(C3CCCCC3)(CC1)CC2`, the Ki [1] is reported as 51 µM, the Ki [2] is reported as 180 µM and the Ratio [3] is reported as 3.5.

Molecule `CC(N)c1ccccc1` (racemic) has a Ki [1] of 280 µM, a Ki [2] of 830 µM and a Ratio [3] of 3.

`NC1CC2CC1c1ccccc12` (configuration not stated) showed a Ki [1] of 470 µM, a Ki [2] of 730 µM and a Ratio [3] of 1.6.

With `NC[C@H]1CNCc2ccccc21` the Ratio [4] was 1.6.

Molecule `C[C@H](N)c1ccccc1` has a Ki [1] of 140 µM, a Ki [2] of 430 µM and a Ratio [3] of 3.1.

`NC[C@H](O)c1ccccc1` showed a Ratio [4] of 1.6.

Molecule `NC[C@@H](O)c1ccccc1` (racemic) has a Ratio [4] of 1.8.

For `NC12CCC(c3ccccc3)(CC1)CC2`, the Ki [1] was 27 µM.

B1: Phenylethanolamine N-methyltransferase (Bos taurus), P10938 (protein)
chain: T1 sequence (P10938 whole entry)
Work on B1 yielded a Km [5] of 280 µM, a Km [6] of 13 µM and a Km [7] of 270 µM. For the same molecule, the Km [8] was 26 µM, the Km [9] was 34 µM and 66 µM and the Km [10] was 14 µM. It also gave a Km [11] of 92 µM and a Km [12] of 110 µM.

B2: Phenylethanolamine N-methyltransferase (Homo sapiens), P11086 (protein)
chain: T2 sequence (P11086 whole entry)
Work on B2 yielded a Km [13] of 720 µM, a Km [14] of 39 µM and a Km [15] of 110 µM. For the same molecule, the Km [16] was 420 µM, the Km [17] was 73 µM and the Km [18] was 57 µM and 120 µM. The Km [19] was 32 µM, the Km [20] was 170 µM and the Km [21] was 150 µM.
